From PubChem BioAssay (NCI)
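Results reflect a 48-hour exposure of cells in 96-well plates to compound at five concentrations. GI50 is the concentration that inhibits growth by half. The concentration for full growth arrest is given as TGI.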

What was measured:
Assay in all cases: NCI tumour cell line growth inhibition, 48 h
SF-268 CNS = test system: SF-268 CNS
NCI-H460 lung = test system: NCI-H460 lung
OVCAR-4 ovarian = test system: OVCAR-4 ovarian
UACC-62 melanoma = test system: UACC-62 melanoma
HT29 colon = test system: HT29 colon
MDA-MB-231 breast = test system: MDA-MB-231 breast
EKVX NSCLC = test system: EKVX NSCLC
MALME-3M melanoma = test system: MALME-3M melanoma
M14 melanoma = test system: M14 melanoma
SW-620 colon = test system: SW-620 colon
KM12 colon = test system: KM12 colon
T-47D breast = test system: T-47D breast
ACHN renal = test system: ACHN renal
HL-60(TB) leukemia = test system: HL-60(TB) leukemia
SK-OV-3 ovarian = test system: SK-OV-3 ovarian
NCI-H23 lung = test system: NCI-H23 lung
SK-MEL-5 melanoma = test system: SK-MEL-5 melanoma
RXF 393 renal = test system: RXF 393 renal
CAKI-1 renal = test system: CAKI-1 renal
LOX IMVI melanoma = test system: LOX IMVI melanoma
UO-31 renal = test system: UO-31 renal
HCC-2998 colon = test system: HCC-2998 colon
PC-3 prostate = test system: PC-3 prostate
DU-145 prostate = test system: DU-145 prostate
UACC-257 melanoma = test system: UACC-257 melanoma
HCT-116 colon = test system: HCT-116 colon
OVCAR-8 ovarian = test system: OVCAR-8 ovarian
U251 CNS = test system: U251 CNS
SK-MEL-2 melanoma = test system: SK-MEL-2 melanoma
HCT-15 colon = test system: HCT-15 colon
SNB-19 CNS = test system: SNB-19 CNS
A549 NSCLC = test system: A549 NSCLC
SN12C renal = test system: SN12C renal
COLO 205 colon = test system: COLO 205 colon
MCF7 breast = test system: MCF7 breast
786-0 renal = test system: 786-0 renal
A498 renal = test system: A498 renal
MDA-MB-435 = test system: MDA-MB-435
HOP-92 NSCLC = test system: HOP-92 NSCLC
NCI-H522 lung = test system: NCI-H522 lung
NCI-H226 lung = test system: NCI-H226 lung
K-562 leukemia = test system: K-562 leukemia
NCI/ADR-RES ovarian = test system: NCI/ADR-RES ovarian
SF-295 CNS = test system: SF-295 CNS
HS 578T breast = test system: HS 578T breast
OVCAR-3 ovarian = test system: OVCAR-3 ovarian
MDA-N = test system: MDA-N
OVCAR-5 ovarian = test system: OVCAR-5 ovarian
TK-10 renal = test system: TK-10 renal
CCRF-CEM leukemia = test system: CCRF-CEM leukemia
SK-MEL-28 melanoma = test system: SK-MEL-28 melanoma
MOLT-4 leukemia = test system: MOLT-4 leukemia
HOP-62 NSCLC = test system: HOP-62 NSCLC
IGROV1 ovarian = test system: IGROV1 ovarian
BT-549 breast = test system: BT-549 breast
SF-539 CNS = test system: SF-539 CNS
RPMI-8226 leukemia = test system: RPMI-8226 leukemia
SR leukemia = test system: SR leukemia
SNB-75 CNS = test system: SNB-75 CNS

SMILES: Cc1cc(-c2ccccc2)nc2oc(=O)n(C)c12
- TGI (SF-268 CNS): > 100 µM
- TGI (NCI-H460 lung): > 100 µM
- TGI (OVCAR-4 ovarian): > 100 µM
- TGI (UACC-62 melanoma): > 100 µM
- TGI (HT29 colon): > 100 µM
- TGI (MDA-MB-231 breast): > 100 µM
- TGI (EKVX NSCLC): > 100 µM
- TGI (MALME-3M melanoma): > 100 µM
- TGI (M14 melanoma): > 100 µM
- TGI (SW-620 colon): > 100 µM
- TGI (KM12 colon): > 100 µM
- TGI (T-47D breast): > 100 µM
- TGI (ACHN renal): > 100 µM
- TGI (HL-60(TB) leukemia): > 100 µM
- TGI (SK-OV-3 ovarian): > 100 µM
- TGI (NCI-H23 lung): > 100 µM
- TGI (SK-MEL-5 melanoma): > 100 µM
- TGI (RXF 393 renal): > 100 µM
- TGI (CAKI-1 renal): > 100 µM
- TGI (LOX IMVI melanoma): > 100 µM
- TGI (UO-31 renal): > 100 µM
- TGI (HCC-2998 colon): > 100 µM
- TGI (PC-3 prostate): > 100 µM
- TGI (DU-145 prostate): > 100 µM
- TGI (UACC-257 melanoma): > 100 µM
- TGI (HCT-116 colon): > 100 µM
- TGI (OVCAR-8 ovarian): > 100 µM
- TGI (U251 CNS): > 100 µM
- TGI (SK-MEL-2 melanoma): > 100 µM
- TGI (HCT-15 colon): > 100 µM
- TGI (SNB-19 CNS): > 100 µM
- TGI (A549 NSCLC): > 100 µM
- TGI (SN12C renal): > 100 µM
- TGI (COLO 205 colon): > 100 µM
- TGI (MCF7 breast): > 100 µM
- TGI (786-0 renal): > 100 µM
- TGI (A498 renal): > 100 µM
- TGI (MDA-MB-435): > 100 µM
- TGI (HOP-92 NSCLC): > 100 µM
- TGI (NCI-H522 lung): > 100 µM
- TGI (NCI-H226 lung): > 100 µM
- TGI (K-562 leukemia): > 100 µM
- TGI (NCI/ADR-RES ovarian): > 100 µM
- TGI (SF-295 CNS): > 100 µM
- TGI (HS 578T breast): > 100 µM
- TGI (OVCAR-3 ovarian): > 100 µM
- TGI (MDA-N): > 100 µM
- TGI (OVCAR-5 ovarian): > 100 µM
- TGI (TK-10 renal): > 100 µM
- TGI (CCRF-CEM leukemia): > 100 µM
- TGI (SK-MEL-28 melanoma): > 100 µM
- TGI (MOLT-4 leukemia): > 100 µM
- TGI (HOP-62 NSCLC): > 100 µM
- TGI (IGROV1 ovarian): > 100 µM
- TGI (BT-549 breast): > 100 µM

SMILES: c1ccc2c(c1)cc1ccc3cccc4ccc2c1c34
- TGI (SF-268 CNS): > 100 µM
- TGI (NCI-H460 lung): > 100 µM
- GI50 (OVCAR-4 ovarian): > 100 µM
- TGI (OVCAR-4 ovarian): > 100 µM
- TGI (UACC-62 melanoma): > 100 µM
- TGI (HT29 colon): > 100 µM
- TGI (MDA-MB-231 breast): > 100 µM
- TGI (EKVX NSCLC): > 100 µM
- GI50 (MALME-3M melanoma): > 100 µM
- TGI (MALME-3M melanoma): > 100 µM
- TGI (M14 melanoma): > 100 µM
- TGI (SW-620 colon): > 100 µM
- TGI (KM12 colon): > 100 µM
- TGI (T-47D breast): > 100 µM
- TGI (ACHN renal): > 100 µM
- TGI (HL-60(TB) leukemia): > 100 µM
- TGI (SK-OV-3 ovarian): > 100 µM
- TGI (NCI-H23 lung): > 100 µM
- TGI (SK-MEL-5 melanoma): > 100 µM
- TGI (RXF 393 renal): > 100 µM
- TGI (CAKI-1 renal): > 100 µM
- TGI (LOX IMVI melanoma): > 100 µM
- TGI (UO-31 renal): > 100 µM
- TGI (HCC-2998 colon): > 100 µM
- TGI (PC-3 prostate): > 100 µM
- TGI (DU-145 prostate): > 100 µM
- TGI (UACC-257 melanoma): > 100 µM
- TGI (SF-539 CNS): > 100 µM
- TGI (HCT-116 colon): > 100 µM
- TGI (RPMI-8226 leukemia): > 100 µM
- TGI (OVCAR-8 ovarian): > 100 µM
- TGI (U251 CNS): > 100 µM
- TGI (SK-MEL-2 melanoma): > 100 µM
- TGI (HCT-15 colon): > 100 µM
- TGI (SNB-19 CNS): > 100 µM
- TGI (A549 NSCLC): > 100 µM
- TGI (SN12C renal): > 100 µM
- TGI (COLO 205 colon): > 100 µM
- TGI (786-0 renal): > 100 µM
- GI50 (A498 renal): > 100 µM
- TGI (A498 renal): > 100 µM
- TGI (MDA-MB-435): > 100 µM
- TGI (HOP-92 NSCLC): > 100 µM
- TGI (NCI-H522 lung): > 100 µM
- TGI (NCI-H226 lung): > 100 µM
- TGI (K-562 leukemia): > 100 µM
- TGI (NCI/ADR-RES ovarian): > 100 µM
- TGI (SF-295 CNS): > 100 µM
- TGI (HS 578T breast): > 100 µM
- TGI (SR leukemia): > 100 µM
- TGI (OVCAR-3 ovarian): > 100 µM
- TGI (MDA-N): > 100 µM
- TGI (SNB-75 CNS): > 100 µM
- GI50 (OVCAR-5 ovarian): > 100 µM
- TGI (OVCAR-5 ovarian): > 100 µM
- TGI (TK-10 renal): > 100 µM
- TGI (CCRF-CEM leukemia): > 100 µM
- TGI (SK-MEL-28 melanoma): > 100 µM
- TGI (MOLT-4 leukemia): > 100 µM
- TGI (HOP-62 NSCLC): > 100 µM
- TGI (IGROV1 ovarian): > 100 µM
- TGI (BT-549 breast): > 100 µM

SMILES: CC(=O)/C(=N\Nc1ccc(Cl)cc1)C(C)=Nc1ccc(C)cc1
- TGI (SF-268 CNS): > 100 µM
- TGI (OVCAR-4 ovarian): > 100 µM
- TGI (UACC-62 melanoma): > 100 µM
- TGI (HT29 colon): 61.3 µM
- TGI (MDA-MB-231 breast): > 100 µM
- TGI (EKVX NSCLC): > 100 µM
- TGI (MALME-3M melanoma): 59.2 µM
- TGI (M14 melanoma): 58 µM
- TGI (SW-620 colon): > 100 µM
- TGI (KM12 colon): > 100 µM
- TGI (T-47D breast): > 100 µM
- TGI (ACHN renal): 61.3 µM
- TGI (SK-OV-3 ovarian): > 100 µM
- TGI (NCI-H23 lung): > 100 µM
- TGI (SK-MEL-5 melanoma): 38.8 µM
- TGI (RXF 393 renal): 95.8 µM
- TGI (CAKI-1 renal): > 100 µM
- TGI (LOX IMVI melanoma): > 100 µM
- TGI (UO-31 renal): > 100 µM
- TGI (PC-3 prostate): > 100 µM
- TGI (DU-145 prostate): > 100 µM
- TGI (UACC-257 melanoma): > 100 µM
- TGI (HCT-116 colon): > 100 µM
- TGI (RPMI-8226 leukemia): > 100 µM
- TGI (OVCAR-8 ovarian): > 100 µM
- TGI (U251 CNS): > 100 µM
- TGI (SK-MEL-2 melanoma): 40 µM
- TGI (HCT-15 colon): > 100 µM
- TGI (SNB-19 CNS): > 100 µM
- TGI (A549 NSCLC): > 100 µM
- TGI (SN12C renal): > 100 µM
- TGI (COLO 205 colon): 43.1 µM
- TGI (786-0 renal): > 100 µM
- TGI (A498 renal): 85.2 µM
- TGI (MDA-MB-435): > 100 µM
- TGI (HOP-92 NSCLC): 37.4 µM
- TGI (NCI-H522 lung): 66.7 µM
- TGI (NCI-H226 lung): 83.7 µM
- TGI (K-562 leukemia): > 100 µM
- TGI (NCI/ADR-RES ovarian): > 100 µM
- TGI (SF-295 CNS): > 100 µM
- TGI (HS 578T breast): > 100 µM
- TGI (SR leukemia): > 100 µM
- TGI (OVCAR-3 ovarian): 84.5 µM
- TGI (MDA-N): > 100 µM
- TGI (SNB-75 CNS): > 100 µM
- TGI (OVCAR-5 ovarian): > 100 µM
- TGI (TK-10 renal): > 100 µM
- TGI (CCRF-CEM leukemia): 37.7 µM
- TGI (SK-MEL-28 melanoma): > 100 µM
- TGI (MOLT-4 leukemia): > 100 µM
- TGI (IGROV1 ovarian): > 100 µM
- TGI (BT-549 breast): > 100 µM
